For data set [1], the system named is CYP1B1 mRNA. Briefly: Gene expression analysis (qPCR) in MDA-MB-468 cells. In kind it is cell-based, human. The note with it: 1.0 μM, 6 h. Here is the method:
(§1) These analogues were specifically chosen because they were synthesised without the production of regioisomers, their structural differences are small while their biological differences are large, c.f. […] Neither analogue altered the expression of SULT1A1 (Figure 4D).
(§2) Gene expression was examined in MDA-MB-468 cells following 6 h treatment. Total RNA was extracted using the RNeasy Mini Kit (Qiagen) according to the manufacturer’s instructions. One µg of RNA was reverse transcribed using the QuanitTect Reverse Transcription Kit (Qiagen) according to the manufacturer’s instructions. Rotor-Gene SYBR Green PCR Kit (Qiagen) was used to perform qPCR on a Rotor-Gene 3,000 Thermo-Cycler Instrument using β2-microglobulin as a housekeeping gene (Qiagen). The primer sequences were purchased from Qiagen as follows: AhR (QT02422938), CYP1A1 (QT00012341), CYP1B1 (QT00209496), SULT1A1 (QT01665489), and β2M (QT00088935). HotStar Taq activation (95 °C for 5 min) was followed by 40 cycles of denaturation (95 °C for 5 s), and annealing/extension (60 °C for 10 s). The comparative Ct value method was used for data analysis. Results are presented as the mean ± standard error of the mean (SEM) of analysis conducted in duplicate and repeated on two separate occasions. Significant test results were determined using T-test analysis at p < 0.01 with a two tail distribution.

Data set [2] relates to CYP1A1 mRNA. The data set is described as above. The conditions noted are these: 1.0 μM, 6 h. In kind it is cell-based, human. On the procedure:
as §1, §2

The target in data set [3] is T1, AhR (Homo sapiens, UniProt P35869).
T1 construct: This cell line stably expresses the secreted Lucia luciferase reporter gene under the control of a minimal promoter; host or cells: HT29-Lucia AhR reporter cells
T1 sequence (P35869 11-848): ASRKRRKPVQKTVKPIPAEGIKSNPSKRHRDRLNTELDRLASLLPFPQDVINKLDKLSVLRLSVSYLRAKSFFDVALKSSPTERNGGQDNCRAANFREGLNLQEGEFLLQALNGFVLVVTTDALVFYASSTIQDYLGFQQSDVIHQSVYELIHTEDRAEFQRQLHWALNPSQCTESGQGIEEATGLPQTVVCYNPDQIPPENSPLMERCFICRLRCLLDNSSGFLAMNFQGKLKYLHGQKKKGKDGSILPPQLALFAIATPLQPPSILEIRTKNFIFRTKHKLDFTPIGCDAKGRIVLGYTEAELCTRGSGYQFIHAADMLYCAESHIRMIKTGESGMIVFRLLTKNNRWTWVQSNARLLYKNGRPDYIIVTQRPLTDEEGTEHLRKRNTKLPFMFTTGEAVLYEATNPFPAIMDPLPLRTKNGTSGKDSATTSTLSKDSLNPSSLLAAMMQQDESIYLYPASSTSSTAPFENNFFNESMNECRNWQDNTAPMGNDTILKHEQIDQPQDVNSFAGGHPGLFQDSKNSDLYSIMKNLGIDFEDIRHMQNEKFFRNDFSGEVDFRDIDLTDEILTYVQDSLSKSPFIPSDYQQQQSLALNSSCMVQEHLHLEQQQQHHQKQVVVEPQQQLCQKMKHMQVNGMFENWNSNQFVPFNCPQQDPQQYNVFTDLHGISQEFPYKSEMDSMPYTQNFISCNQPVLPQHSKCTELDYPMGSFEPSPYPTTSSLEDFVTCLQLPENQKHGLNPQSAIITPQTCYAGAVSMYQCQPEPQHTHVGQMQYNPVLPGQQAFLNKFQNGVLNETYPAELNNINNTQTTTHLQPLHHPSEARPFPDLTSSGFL
The data set can be described thus: AhR transcription reporter assay (HT29-Lucia AhR cells). In kind it is cell-based. The conditions noted are these: 24 h. The text has this:
Our previous studies have shown that the activity of NAP-6 (2) and 10-Cl-BBQ (3) required the activation of the AhR pathway and the induction of CYP1 family of phase I metabolising enzymes ([Gilbert et al., 2020]; [Baker et al., 2021a]). Therefore, we sought to determine the activation of AhR using a stable AhR reporter assay in HT29-Lucia™ AhR cells, in the presence of each BBQ analogue (Figure 3). Activation of the AhR was indicated by enhanced luminescence caused by the translocation of the AhR to the nucleus of the cell and interaction with the xenobiotic response elements imbedded in the luciferase gene.
Stock solutions were prepared as follows and stored as 20 mM DMSO solutions at −20 °C. All cell lines were cultured in a humidified atmosphere 5% CO2 at 37 °C. The cancer cell lines were maintained in Dulbecco’s modified Eagle’s medium (DMEM) (Trace Biosciences, Australia) supplemented with 10% foetal bovine serum (FBS), 10 mM sodium bicarbonate, penicillin (100 IU/mL), streptomycin (100 μg/mL), and glutamine (4 mM). The non-cancer MCF10A cell line was cultured in DMEM:F12 (1:1) cell culture media, 5% heat inactivated horse serum, supplemented with penicillin (50 IU/mL), streptomycin (50 μg/mL), 20 mM Hepes, L-glutamine (2 mM), epidermal growth factor (20 ng/mL), hydrocortisone (500 ng/mL), cholera toxin (100 ng/mL), and insulin (10 μg/mL). The AhR reporter cell line HT29-Lucia™ (Invivogen, United States) was maintained in DMEM supplemented with 10% heat inactivated FBS, L-glutamine (2 mM), penicillin (100 IU/mL), streptomycin (100 μg/mL), 100 μg/mL Normocin™, and 100 μg/mL of the selective antibiotic Zeocin™. All cell lines were purchased from the American Type Culture Collection (ATCC), except for A2780 and A431 which were from the European Collection of Authenticated Cell Cultures (ECACC), and SJ-G2 cell line which was from Dr Mary Danks, St Jude Children’s Research hospital, Memphis, TN.
The activity of the AhR signalling pathway was measured using the stably transfected AhR cell line, HT29-Lucia™ (Invivogen, United States). This cell line stably expresses the secreted Lucia luciferase reporter gene under the control of a minimal promoter coupled with the human CYP1A1 gene entire regulatory sequence, containing six DREs. The Lucia luciferase reporter protein is readily measurable in the cell culture supernatant using QUANTI-Luc™. For the determination of AhR activity, 4 × 10^4 cells in 180 μL was plated into each well of a 96 well micro-titre plate in the absence of antibiotics and allowed to culture for 24 h prior to the addition of test compounds in a volume of 20 μL. At the indicated time, 20 μL of cell supernatant was transferred to a white luminometer plate and 50 µL of QUANTI-Luc was added immediately prior to reading the luminescence using a GloMax Explorer Luminescence Plate Reader. The promoter activity was conducted in duplicate and the values expressed as fold-change relative to DMSO (0.1%) treated cells. The AhR ligand, FICZ (6-formylindolo[3,2-b]carbazole) and AhR inhibitor CH223191 were included for study as positive and negative controls, respectively. […] Results are presented as the mean ± standard error of the mean (SEM) of analysis conducted in duplicate and repeated on three separate occasions.

In data set [4] the test system is broad panel of cancer cell lines and non-cancer breast cell line MCF10A. The conditions noted are these: ref Gilbert et al., 2017; Gilbert et al., 2020; cited from earlier work.
A short description of data set [5]: Solubility in the compound testing media. The data set is classed as physicochemical.
Data set [6] deals with MCF10A normal breast cells. The data set can be described thus: MTT growth inhibition with CYP1 (αNF) or SULT1A1 (quercetin) inhibitor. The data set is classed as cell-based, human. The note with it: 3 and 5 at 0.1 µM, αNF 10 µM, quercetin 5 µM, 72 h (Supp Figure 1). On the procedure: This analysis confirms that both CYP1 and SULT1A1, activity is needed to induce the growth inhibitory effect of the BBQ analogue.
Cells in logarithmic growth were transferred to 96-well plates. Cytotoxicity was determined by plating cells in duplicate in 100 μL medium at a density of 2,500–4,000 cells/well in 96 well plates. On day 0, (24 h after plating) when the cells were in logarithmic growth 100 μL medium with or without the test agent was added to each well. After 72 h drug exposure growth inhibitory effects were evaluated using the MTT (3-[4,5-dimethylthiazol-2-yl]-2,5-diphenyltetrazolium bromide) assay with absorbance read at 540 nm. An eight-point dose response curve was produced, using MS Excel software. From these dose-response curves, the GI50 value was calculated, representing the drug concentration at which cell growth is 50% inhibited based on the difference between the optical density values on day 0 and those at the end of drug exposure ([Bradshaw et al., 2008]; [Zhang et al., 2009]). Each data point was conducted in duplicate and the mean ± S.E.M. calculated from four to five replicates (n = 4 or 5), which were performed on separate occasions and separate cell line passages. Where shown, significant test results were determined using T-test analysis at p < 0.01 and p < 0.05 with a two tail distribution.
Supp Figure 1. CYP1 and SULT1A1 inhibition ameliorates the effect of 3 and 5. Growth inhibition (72 h, MTT assay) of 3 and 5 (0.1 µM) in the presence of the CYP1 family inhibitor, α-naphthoflavone (αNF, 10 µM) and SULT1A1 inhibitor, quercetin (qu, 5 µM) in (A) MDA-MB-468 breast cancer cells and (B) MCF10A normal breast cells. Significant differences are at the P < 0.01 ** level, using a paired T-test with a two-tailed distribution.

Here are results for six molecules from PMC11224556, “Next-generation of BBQ analogues that selectively target breast cancer” (Frontiers in Chemistry, 2024).

The melting point is the temperature of the solid-liquid transition.

For “6-formylindolo[3,2-b]carbazole [FICZ, reference compound]”, in data set [1], the “CYP1B1 Fold change (mRNA vs DMSO control)” value came to 3.7 fold. For the same molecule, the “CYP1A1 Fold change (mRNA vs DMSO control)” value in data set [2] worked out at 19 fold. Moreover, the “AhR activation, Fold Reporter Induction” value in data set [3] (0.5 μM, positive control) is given as 2.7 fold.

On to `Cc1ccccc1N=Nc1ccc(NC(=O)c2ccnn2C)c(C)c1` [CH223191, reference compound], for which the “AhR activation, Fold Reporter Induction” value in data set [3] (2.5 μM, negative control) is reported as 0.7 fold.

For the molecule `N#C/C(=C\c1ccc[nH]1)c1ccc(Cl)c(Cl)c1` [Compound 1, (Z)-2-(3,4-dichlorophenyl)-3-(1H-pyrrol-2-yl)acrylonitrile], in data set [4], the “selective targeting of certain breast cancer cell lines compared with normal breast cells or other tumour types (fold)” value was “more than 500 fold”.

Molecule `O=c1c2cccc3cccc(c32)c2nc3c(Cl)cc(Cl)cc3n12` [Compound 6, 10,12-Dichloro-7H-benzo[de]benzo[4,5]imidazo[2,1-a]isoquinolin-7-one] had a melting point of 292 to 294 °C. Moreover, the “solubility in the compound testing media” value in data set [5] was “insoluble”.

Take `O=c1c(O)c(-c2ccc(O)c(O)c2)oc2cc(O)cc(O)c12` [quercetin, reference compound]: the “effect on growth in normal MCF10A cells” value in data set [6] is “Neither 3, 5, αNF, or quercetin affected growth”.

With `O=c1cc(-c2ccccc2)oc2c1ccc1ccccc12` [α-naphthoflavone, reference compound], the “effect on growth in normal MCF10A cells” value in data set [6] is listed as “Neither 3, 5, αNF, or quercetin affected growth”.
